Measured values taken from patent publication US20230295118A1 (EnhancedBio Inc., priority 2022, published 2023).

Legend:
Format in all cases: cell-based
CDK6 = molecular target: T1, CDK6 (Homo sapiens, UniProt Q00534); experiment: CDK6 degradation (DC50, Dmax)
T1 construct: endogenous in cells

CDK4 = molecular target: T2, CDK4 (Homo sapiens, UniProt P11802); experiment: CDK4 degradation (DC50, Dmax)
T2 construct: endogenous in cells

[1] = tested on: mantle cell lymphoma cell (Mino or JeKo-1); experiment: Antiproliferative effect, MTS cell viability assay; conditions: 72 h, mantle cell lymphoma cell (Mino or JeKo-1), MTS assay, read-out: IC50 (anti-proliferation)
How it was run: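 MTS read-out (formazan absorbance at 490 nm) after 72 h exposure of Mino cells to 0–1 μM compound (0.0001, 0.001, 0.01, 0.1, 1 μM). Palbociclib and abemaciclib served as positive controls.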

T1 sequence (Q00534 whole entry): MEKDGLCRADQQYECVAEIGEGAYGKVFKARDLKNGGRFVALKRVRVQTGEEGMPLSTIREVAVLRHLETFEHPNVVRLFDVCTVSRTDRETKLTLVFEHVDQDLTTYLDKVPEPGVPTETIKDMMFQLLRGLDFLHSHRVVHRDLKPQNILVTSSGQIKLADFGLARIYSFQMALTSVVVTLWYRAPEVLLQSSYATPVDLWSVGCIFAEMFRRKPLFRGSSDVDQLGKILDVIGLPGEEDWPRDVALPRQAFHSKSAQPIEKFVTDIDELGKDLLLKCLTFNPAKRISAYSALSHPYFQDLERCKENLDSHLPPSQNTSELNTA
T2 sequence (P11802 whole entry): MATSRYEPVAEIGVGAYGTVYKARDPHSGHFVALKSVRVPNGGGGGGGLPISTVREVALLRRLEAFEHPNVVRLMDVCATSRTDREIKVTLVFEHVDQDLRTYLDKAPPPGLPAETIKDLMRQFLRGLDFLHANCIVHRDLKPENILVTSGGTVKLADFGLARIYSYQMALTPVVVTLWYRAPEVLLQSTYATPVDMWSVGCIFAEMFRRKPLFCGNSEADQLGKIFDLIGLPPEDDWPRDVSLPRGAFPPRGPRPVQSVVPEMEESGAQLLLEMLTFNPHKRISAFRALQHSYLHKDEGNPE

SMILES	DC50 (CDK6)	Dmax (CDK6)	DC50 (CDK4)	Dmax (CDK4)	IC50 [1]
CC(=O)c1c(C)c2cnc(Nc3ccc(N4CCN(CCC5CCN(c6ccc7c(c6)CN(C6CCC(=O)NC6=O)C7=O)CC5)CC4)cn3)nc2n(C2CCCC2)c1=O (stereo not drawn) [Compound 70, 3-(5-(4-(2-(4-(6-((6-acetyl-8-cyclopentyl-5-methyl-7-oxo-7,8-dihydropyrido[2,3-d]pyrimidin-2-yl)amino)pyridin-3-yl)piperazin-1-yl)ethyl)piperidin-1-yl)-1-oxoisoindolin-2-yl) piperidine-2,6-dione]	50 to 200 nM	> 60%	50 to 200 nM	> 50%	50 to 200 nM
CC(=O)c1c(C)c2cnc(Nc3ccc(N4CCN(CCN5CCC(c6ccc7c(c6)C(=O)N(C6CCC(=O)NC6=O)C7=O)CC5)CC4)cn3)nc2n(C2CCCC2)c1=O (stereo not drawn) [Compound 71, 5-(1-(2-(4-(6-((6-acetyl-8-cyclopentyl-5-methyl-7-oxo-7,8-dihydropyrido[2,3-d]pyrimidin-2-yl)amino)pyridin-3-yl)piperazin-1-yl)ethyl)piperidin-4-yl)-2-(2,6-dioxopiperidin-3-yl)isoindoline-1,3-dione]	> 200 nM	> 60%	> 200 nM	> 60%	50 to 200 nM
CC(=O)c1c(C)c2cnc(Nc3ccc(N4CCN(CCN5CCC(c6ccc7c(c6)CN(C6CCC(=O)NC6=O)C7=O)CC5)CC4)cn3)nc2n(C2CCCC2)c1=O (stereo not drawn) [Compound 72, 3-(5-(1-(2-(4-(6-((6-acetyl-8-cyclopentyl-5-methyl-7-oxo-7,8-dihydropyrido[2,3-d]pyrimidin-2-yl)amino)pyridin-3-yl)piperazin-1-yl)ethyl)piperidin-4-yl)-1-oxoisoindolin-2-yl)piperidine-2,6-dione]	> 200 nM	> 50%	50 to 200 nM	> 60%	50 to 200 nM

Results, then the compound that gave them:

DC50 (CDK6)	Dmax (CDK6)	DC50 (CDK4)	Dmax (CDK4)	IC50 [1]	SMILES
50 to 200 nM	> 60%	50 to 200 nM	> 60%	50 to 200 nM	CC(=O)c1c(C)c2cnc(Nc3ccc(N4CCN(CCC5CCN(c6ccc7c(c6)C(=O)N(C6CCC(=O)NC6=O)C7=O)CC5)CC4)cn3)nc2n(C2CCCC2)c1=O (stereo not drawn) [Compound 69, 5-(4-(2-(4-(6-((6-acetyl-8-cyclopentyl-5-methyl-7-oxo-7,8-dihydropyrido[2,3-d]pyrimidin-2-yl)amino)pyridin-3-yl)piperazin-1-yl)ethyl)piperidin-1-yl)-2-(2,6-dioxopiperidin-3-yl)isoindoline-1,3-dione]
< 50 nM	> 80%	< 50 nM	> 80%	< 50 nM	Cc1nc2c(F)cc(-c3nc(Nc4ccc(CN5CCN(CCCNc6ccc7c(c6)CN(C6CCC(=O)NC6=O)C7=O)CC5)cn4)ncc3F)cc2n1C(C)C (stereo not drawn) [Compound 74, 3-(5-((3-(4-((6-((5-fluoro-4-(4-fluoro-1-isopropyl-2-methyl-1H-benzo[d]imidazol-6-yl)pyrimidin-2-yl)amino)pyridin-3-yl)methyl)piperazin-1-yl)propyl)amino)-1-oxoisoindolin-2-yl)piperidine-2,6-dione]
< 50 nM	> 80%	< 50 nM	> 80%	< 50 nM	CN(C)C(=O)c1cc2cnc(Nc3ccc(N4CCN(CCCNc5ccc6c(c5)C(=O)N(C5CCC(=O)NC5=O)C6=O)CC4)cn3)nc2n1C1CCCC1 (stereo not drawn) [Compound 75, 7-cyclopentyl-2-((5-(4-(3-((2-(2,6-dioxopiperidin-3-yl)-1,3-dioxoisoindolin-5-yl)amino)propyl)piperazin-1-yl)pyridin-2-yl)amino)-N,N-dimethyl-7H-pyrrolo[2,3-d]pyrimidine-6-carboxamide]
